Assay results reported in ChEMBL document CHEMBL4177524, “Discovery of hepatitis B virus capsid assembly inhibitors leading to a heteroaryldihydropyrimidine based clinical candidate (GLS4)” (Bioorg Med Chem, 2017).

Assays:
Trypsin (Homo sapiens) = Trypsin (Homo sapiens) (UniProt P07477+P07478+P35030); test: Inhibition of trypsin (unknown origin) at 1 uM; assay type: protein assay
[1] = Drug uptake in beagle dog liver by LC/MS/MS analysis; assay type: ADME, tissue-based, Canis lupus familiaris; details: in vivo
[2] = Drug uptake in beagle dog lung by LC/MS/MS analysis; assay type: ADME, tissue-based, Canis lupus familiaris; details: in vivo
[3] = target: Core antigen (Hepatitis B virus) (UniProt Q03732); test: Inhibition of hepatitis B virus capsid assembly infected in human HepG2.215 cells assessed as reduction in viral DNA replication measured on day 7 by real time PCR analysis; assay type: cell-based
Chain of Core antigen (Hepatitis B virus) (Q03732 as listed by the source): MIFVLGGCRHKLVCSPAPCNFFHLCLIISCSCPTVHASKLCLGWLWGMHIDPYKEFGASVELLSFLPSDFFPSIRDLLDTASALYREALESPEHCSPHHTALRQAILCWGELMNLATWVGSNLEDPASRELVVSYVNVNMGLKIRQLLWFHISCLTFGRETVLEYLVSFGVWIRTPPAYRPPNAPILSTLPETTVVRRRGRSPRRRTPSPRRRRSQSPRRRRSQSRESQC

Mus musculus [4] = test: Biotransformation in po dosed mouse assessed as (R)-Ethyl 4-(2-bromo-4-fluorophenyl)-6-(morpholinomethyl)-2-(thiazol-2-yl)-1,4-dihydropyrimidine-5-carboxylate formation; assay type: ADME, organism-based; details: in vivo
Mus musculus [5] = test: Biotransformation in po dosed mouse assessed as (S)-Ethyl 4-(2-bromo-4-fluorophenyl)-6-(morpholinomethyl)-2-(thiazol-2-yl)-1,4-dihydropyrimidine-5-carboxylate formation; assay type: ADME, organism-based; details: in vivo
Canis familiaris [6] = test: Biotransformation in po dosed beagle dog assessed as (R)-Ethyl 4-(2-bromo-4-fluorophenyl)-6-(morpholinomethyl)-2-(thiazol-2-yl)-1,4-dihydropyrimidine-5-carboxylate formation; assay type: ADME, organism-based, Canis lupus familiaris; details: in vivo
Canis familiaris [7] = test: Biotransformation in po dosed beagle dog assessed as (S)-Ethyl 4-(2-bromo-4-fluorophenyl)-6-(morpholinomethyl)-2-(thiazol-2-yl)-1,4-dihydropyrimidine-5-carboxylate formation; assay type: ADME, organism-based, Canis lupus familiaris; details: in vivo
Canis familiaris [8] = test: Cmax in beagle dog at 5 mg/kg, po by LC/MS/MS analysis; assay type: ADME, organism-based, Canis lupus familiaris; parameters: dose 5 mg/kg, route oral; details: in vivo
Canis familiaris [9] = test: Cmax in beagle dog at 15 mg/kg, po by LC/MS/MS analysis; assay type: ADME, organism-based, Canis lupus familiaris; parameters: dose 15 mg/kg, route oral; details: in vivo
Canis familiaris [10] = test: Cmax in beagle dog at 45 mg/kg, po by LC/MS/MS analysis; assay type: ADME, organism-based, Canis lupus familiaris; parameters: dose 45 mg/kg, route oral; details: in vivo
Canis familiaris [11] = test: Cmax in beagle dog at 15 mg/kg, po for 7 days by LC/MS/MS analysis; assay type: ADME, organism-based, Canis lupus familiaris; parameters: dose 15 mg/kg, route oral; details: in vivo, 168 h
[12] = AUC (0 to 24 hrs) in beagle dog at 5 mg/kg, iv by LC/MS/MS analysis; assay type: ADME, organism-based, Canis lupus familiaris; parameters: dose 5 mg/kg, time < 24 hr, route intravenous; details: in vivo
[13] = AUC (0 to 24 hrs) in beagle dog at 5 mg/kg, po by LC/MS/MS analysis; assay type: ADME, organism-based, Canis lupus familiaris; parameters: time < 24 hr, dose 5 mg/kg, route oral; details: in vivo
[14] = AUC (0 to 24 hrs) in beagle dog at 15 mg/kg, po by LC/MS/MS analysis; assay type: ADME, organism-based, Canis lupus familiaris; parameters: dose 15 mg/kg, time < 24 hr, route oral; details: in vivo
[15] = AUC (0 to 24 hrs) in beagle dog at 45 mg/kg, po by LC/MS/MS analysis; assay type: ADME, organism-based, Canis lupus familiaris; parameters: time < 24 hr, dose 45 mg/kg, route oral; details: in vivo
[16] = AUC (0 to 24 hrs) in beagle dog at 15 mg/kg, po for 7 days by LC/MS/MS analysis; assay type: ADME, organism-based, Canis lupus familiaris; parameters: time < 24 hr, dose 15 mg/kg, route oral; details: in vivo
[17] = Half life in beagle dog at 5 mg/kg, iv by LC/MS/MS analysis; details: in vivo
[18] = Half life in beagle dog at 5 mg/kg, po by LC/MS/MS analysis; details: in vivo
[19] = Clearance in beagle dog at 5 mg/kg, iv by LC/MS/MS analysis; assay type: ADME, organism-based, Canis lupus familiaris; details: in vivo
[20] = Volume of distribution at steady state in beagle dog at 5 mg/kg, iv by LC/MS/MS analysis; assay type: ADME, organism-based, Canis lupus familiaris; details: in vivo, read-out: Vdss
[21] = Drug uptake in beagle dog heart by LC/MS/MS analysis; assay type: ADME, tissue-based, Canis lupus familiaris; details: in vivo
[22] = Drug uptake in beagle dog brain by LC/MS/MS analysis; assay type: ADME, tissue-based, Canis lupus familiaris; details: in vivo
[23] = target: 72 kDa type IV collagenase (Homo sapiens) (UniProt P08253); test: Inhibition of MMP2 (unknown origin) at 1 uM
Chain of 72 kDa type IV collagenase (Homo sapiens) (P08253 110-660 limits assumed): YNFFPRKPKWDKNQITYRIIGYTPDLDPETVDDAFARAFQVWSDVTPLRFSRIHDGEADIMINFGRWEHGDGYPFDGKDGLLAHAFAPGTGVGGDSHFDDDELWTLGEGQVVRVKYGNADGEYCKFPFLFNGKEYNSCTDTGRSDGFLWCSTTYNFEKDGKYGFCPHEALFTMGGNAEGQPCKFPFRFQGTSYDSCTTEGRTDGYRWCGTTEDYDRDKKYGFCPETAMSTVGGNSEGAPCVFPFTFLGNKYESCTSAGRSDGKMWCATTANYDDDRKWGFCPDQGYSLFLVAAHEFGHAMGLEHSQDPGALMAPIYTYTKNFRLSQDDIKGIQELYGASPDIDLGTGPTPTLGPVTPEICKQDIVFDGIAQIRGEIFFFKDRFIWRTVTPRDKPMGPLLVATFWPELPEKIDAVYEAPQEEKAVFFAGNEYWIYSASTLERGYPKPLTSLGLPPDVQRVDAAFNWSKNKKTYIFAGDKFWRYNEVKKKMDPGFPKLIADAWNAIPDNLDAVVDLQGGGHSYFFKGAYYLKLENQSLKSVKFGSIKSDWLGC

Homo sapiens [24] = organism: Homo sapiens; test: Inhibition of proteasome (unknown origin) at 1 uM
[25] = target: Disintegrin and metalloproteinase domain-containing protein 17 (Homo sapiens) (UniProt P78536); test: Inhibition of TACE (unknown origin) at 1 uM
[26] = target: Low molecular weight phosphotyrosine protein phosphatase (Homo sapiens) (UniProt P24666); test: Inhibition of ACP1 (unknown origin) at 1 uM
[27] = target: Bile acid receptor (Homo sapiens) (UniProt Q96RI1); test: Agonist activity at FXR (unknown origin) at 1 uM
Chain of Bile acid receptor (Homo sapiens) (Q96RI1 whole entry): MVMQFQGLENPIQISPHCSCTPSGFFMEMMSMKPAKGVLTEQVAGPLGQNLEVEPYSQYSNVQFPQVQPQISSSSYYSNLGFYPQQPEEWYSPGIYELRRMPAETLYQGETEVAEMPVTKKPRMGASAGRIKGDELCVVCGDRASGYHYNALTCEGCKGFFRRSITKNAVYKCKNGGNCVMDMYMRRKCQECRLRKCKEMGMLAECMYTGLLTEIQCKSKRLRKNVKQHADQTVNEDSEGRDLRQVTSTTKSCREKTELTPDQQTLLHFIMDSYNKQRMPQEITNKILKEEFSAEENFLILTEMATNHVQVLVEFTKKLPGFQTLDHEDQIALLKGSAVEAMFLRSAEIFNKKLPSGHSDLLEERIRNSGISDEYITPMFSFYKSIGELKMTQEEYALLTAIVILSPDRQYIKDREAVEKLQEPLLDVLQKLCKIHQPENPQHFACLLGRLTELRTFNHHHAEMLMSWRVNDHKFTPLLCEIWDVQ

[28] = target: Bile acid receptor (Homo sapiens) (UniProt Q96RI1); test: Antagonist activity at FXR (unknown origin) at 1 uM
[29] = target: Oxysterols receptor LXR-beta (Homo sapiens) (UniProt P55055); test: Agonist activity at LXRbeta (unknown origin) at 1 uM
Chain of Oxysterols receptor LXR-beta (Homo sapiens) (P55055 whole entry): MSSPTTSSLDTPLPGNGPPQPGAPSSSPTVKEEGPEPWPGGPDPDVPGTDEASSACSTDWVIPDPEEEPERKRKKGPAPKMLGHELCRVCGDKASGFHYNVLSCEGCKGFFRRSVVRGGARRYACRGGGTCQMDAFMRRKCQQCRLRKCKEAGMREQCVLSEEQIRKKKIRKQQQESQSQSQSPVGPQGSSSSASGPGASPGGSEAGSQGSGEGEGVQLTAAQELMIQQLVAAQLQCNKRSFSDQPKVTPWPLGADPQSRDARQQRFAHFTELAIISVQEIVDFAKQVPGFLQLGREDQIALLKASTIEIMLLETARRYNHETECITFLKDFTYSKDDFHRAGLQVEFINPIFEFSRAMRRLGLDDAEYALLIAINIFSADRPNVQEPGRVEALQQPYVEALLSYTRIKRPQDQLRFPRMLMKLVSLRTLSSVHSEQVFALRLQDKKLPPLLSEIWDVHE

[30] = target: Oxysterols receptor LXR-beta (Homo sapiens) (UniProt P55055); test: Antagonist activity at LXRbeta (unknown origin) at 1 uM
[31] = target: Sodium/potassium-transporting ATPase (Homo sapiens) (UniProt P05023+P14415+P05026+P50993+P54709+P13637+Q13733+P54710); test: Inhibition of Sodium/potassium-transporting ATPase (unknown origin) at 1 uM; assay type: protein-complex assay
[32] = target: Prostaglandin G/H synthase 1 (Homo sapiens) (UniProt P23219); test: Inhibition of COX-1 (unknown origin) at 1 uM
[33] = target: NAD-dependent protein deacetylase sirtuin-1 (Homo sapiens) (UniProt Q96EB6); test: Inhibition of SIRT1 (unknown origin) at 1 uM
Chain of NAD-dependent protein deacetylase sirtuin-1 (Homo sapiens) (Q96EB6 whole entry): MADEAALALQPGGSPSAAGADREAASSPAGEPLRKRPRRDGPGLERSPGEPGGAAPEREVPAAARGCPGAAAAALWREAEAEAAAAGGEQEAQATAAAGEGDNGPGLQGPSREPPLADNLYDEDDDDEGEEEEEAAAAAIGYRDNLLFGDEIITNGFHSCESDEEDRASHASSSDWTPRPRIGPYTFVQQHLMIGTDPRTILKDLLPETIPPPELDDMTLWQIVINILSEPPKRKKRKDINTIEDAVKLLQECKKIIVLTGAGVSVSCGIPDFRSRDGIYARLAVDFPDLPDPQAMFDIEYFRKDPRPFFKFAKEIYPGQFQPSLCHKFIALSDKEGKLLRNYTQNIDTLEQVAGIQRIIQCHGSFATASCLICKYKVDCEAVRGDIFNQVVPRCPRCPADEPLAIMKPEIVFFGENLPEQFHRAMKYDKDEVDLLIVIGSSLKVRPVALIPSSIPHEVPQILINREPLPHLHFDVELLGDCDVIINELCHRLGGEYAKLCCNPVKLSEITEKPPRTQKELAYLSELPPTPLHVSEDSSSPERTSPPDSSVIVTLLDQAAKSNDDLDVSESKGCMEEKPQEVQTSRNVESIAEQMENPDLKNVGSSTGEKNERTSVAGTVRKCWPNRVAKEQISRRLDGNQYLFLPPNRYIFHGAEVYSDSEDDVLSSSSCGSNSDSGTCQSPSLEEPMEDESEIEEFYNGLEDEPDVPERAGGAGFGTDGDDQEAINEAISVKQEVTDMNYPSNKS

Homo sapiens [34] = organism: Homo sapiens; test: Inhibition of lipase (unknown origin) at 1 uM
[35] = target: Nitric oxide synthase, inducible (Homo sapiens) (UniProt P35228); test: Inhibition of iNOS (unknown origin) at 1 uM
Homo sapiens [36] = organism: Homo sapiens; test: Inhibition of neural phospholipase (unknown origin) at 1 uM
[37] = target: RAC-alpha serine/threonine-protein kinase (Homo sapiens) (UniProt P31749); test: Inhibition of AKT1 (unknown origin) at 1 uM
Chain of RAC-alpha serine/threonine-protein kinase (Homo sapiens) (P31749 whole entry): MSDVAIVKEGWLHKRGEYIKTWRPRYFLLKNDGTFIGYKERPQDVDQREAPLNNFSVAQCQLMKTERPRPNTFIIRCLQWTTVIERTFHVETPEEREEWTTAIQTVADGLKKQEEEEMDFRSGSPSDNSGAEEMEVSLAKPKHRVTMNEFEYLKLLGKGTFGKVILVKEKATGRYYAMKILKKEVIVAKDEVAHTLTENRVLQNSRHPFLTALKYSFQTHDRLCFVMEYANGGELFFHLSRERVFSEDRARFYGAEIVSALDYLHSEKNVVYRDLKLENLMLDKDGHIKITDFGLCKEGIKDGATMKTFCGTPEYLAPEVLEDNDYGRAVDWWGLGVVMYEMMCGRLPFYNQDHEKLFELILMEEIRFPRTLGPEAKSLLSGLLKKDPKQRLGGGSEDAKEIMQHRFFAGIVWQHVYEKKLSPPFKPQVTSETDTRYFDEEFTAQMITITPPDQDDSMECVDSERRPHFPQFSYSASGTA

[38] = target: Calcium/calmodulin-dependent protein kinase type II subunit delta (Homo sapiens) (UniProt Q13557); test: Inhibition of CAMK2D (unknown origin) at 1 uM
Chain of Calcium/calmodulin-dependent protein kinase type II subunit delta (Homo sapiens) (Q13557 whole entry): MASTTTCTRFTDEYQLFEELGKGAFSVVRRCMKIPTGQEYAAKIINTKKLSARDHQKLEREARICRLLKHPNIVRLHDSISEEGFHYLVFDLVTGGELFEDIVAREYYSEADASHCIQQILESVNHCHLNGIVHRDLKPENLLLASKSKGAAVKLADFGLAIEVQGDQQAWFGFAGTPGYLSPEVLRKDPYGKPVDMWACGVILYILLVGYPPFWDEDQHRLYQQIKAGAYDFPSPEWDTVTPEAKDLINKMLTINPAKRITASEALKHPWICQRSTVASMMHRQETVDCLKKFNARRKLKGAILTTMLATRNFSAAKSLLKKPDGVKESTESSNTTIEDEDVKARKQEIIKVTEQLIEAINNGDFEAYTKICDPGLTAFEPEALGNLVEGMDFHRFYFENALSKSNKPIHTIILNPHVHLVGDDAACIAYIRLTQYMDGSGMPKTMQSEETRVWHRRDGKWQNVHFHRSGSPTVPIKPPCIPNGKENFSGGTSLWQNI

[39] = target: Death-associated protein kinase 1 (Homo sapiens) (UniProt P53355); test: Inhibition of DAPK1 (unknown origin) at 1 uM
[40] = target: Mitogen-activated protein kinase 3 (Homo sapiens) (UniProt P27361); test: Inhibition of ERK1 (unknown origin) at 1 uM
[41] = target: Protein kinase C alpha type (Homo sapiens) (UniProt P17252); test: Inhibition of PKCalpha (unknown origin) at 1 uM
[42] = target: Tyrosine-protein kinase ABL1 (Homo sapiens) (UniProt P00519); test: Inhibition of ABL1 (unknown origin) at 1 uM
[43] = target: Epidermal growth factor receptor (Homo sapiens) (UniProt P00533); test: Inhibition of EGFR (unknown origin) at 1 uM
[44] = target: Receptor-type tyrosine-protein kinase FLT3 (Homo sapiens) (UniProt P36888); test: Inhibition of FLT3 (unknown origin) at 1 uM
[45] = target: Tyrosine-protein kinase JAK2 (Homo sapiens) (UniProt O60674); test: Inhibition of JAK2 (unknown origin) at 1 uM
[46] = target: Proto-oncogene tyrosine-protein kinase Src (Homo sapiens) (UniProt P12931); test: Inhibition of SRC (unknown origin) at 1 uM
[47] = target: Tyrosine-protein kinase ZAP-70 (Homo sapiens) (UniProt P43403); test: Inhibition of ZA70 (unknown origin) at 1 uM
[48] = target: Adenosine receptor A1 (Homo sapiens) (UniProt P30542); test: Inhibition of adenosine receptor A1 (unknown origin) at 1 uM
Chain of Adenosine receptor A1 (Homo sapiens) (P30542 whole entry): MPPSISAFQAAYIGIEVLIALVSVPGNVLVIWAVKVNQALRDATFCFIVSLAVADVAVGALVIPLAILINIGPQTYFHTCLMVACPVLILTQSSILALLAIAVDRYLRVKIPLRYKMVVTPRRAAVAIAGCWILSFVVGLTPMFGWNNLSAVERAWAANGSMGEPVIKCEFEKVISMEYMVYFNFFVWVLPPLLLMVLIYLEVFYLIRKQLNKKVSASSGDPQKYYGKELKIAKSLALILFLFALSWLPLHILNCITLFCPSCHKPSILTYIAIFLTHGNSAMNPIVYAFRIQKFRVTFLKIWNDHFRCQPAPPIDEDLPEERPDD

[49] = target: Interleukin-8 receptors, CXCR1/CXCR2 (Homo sapiens) (UniProt P25025+P25024); test: Inhibition of CXCR1/2 (unknown origin) at 1 uM; assay type: protein assay
[50] = target: D(1A) dopamine receptor (Homo sapiens) (UniProt P21728); test: Inhibition of dopamine D1 receptor (unknown origin) at 1 uM
Chain of D(1A) dopamine receptor (Homo sapiens) (P21728 whole entry): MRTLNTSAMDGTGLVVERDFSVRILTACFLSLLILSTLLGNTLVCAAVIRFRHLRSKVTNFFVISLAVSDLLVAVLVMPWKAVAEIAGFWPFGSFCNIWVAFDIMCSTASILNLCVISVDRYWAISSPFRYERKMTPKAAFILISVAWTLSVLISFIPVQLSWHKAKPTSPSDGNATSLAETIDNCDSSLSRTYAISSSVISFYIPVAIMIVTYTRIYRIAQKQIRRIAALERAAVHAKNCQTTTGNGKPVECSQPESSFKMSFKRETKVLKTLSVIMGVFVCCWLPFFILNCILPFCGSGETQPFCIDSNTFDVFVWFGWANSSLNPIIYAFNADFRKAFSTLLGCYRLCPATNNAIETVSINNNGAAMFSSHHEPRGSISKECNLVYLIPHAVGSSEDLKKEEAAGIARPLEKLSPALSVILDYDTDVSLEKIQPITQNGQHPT

[51] = target: Platelet-activating factor receptor (Homo sapiens) (UniProt P25105); test: Inhibition of platelet-activating factor receptor (unknown origin) at 1 uM
[52] = target: Sodium-dependent serotonin transporter (Homo sapiens) (UniProt P31645); test: Inhibition of 5-Serotonin transporter (unknown origin) at 1 uM
Homo sapiens [53] = organism: Homo sapiens; test: Inhibition of calcium channel (unknown origin) at 1 uM
[54] = Toxicity in beagle dog administered via oral gavage for 28 days; assay type: organism-based, Canis lupus familiaris; details: in vivo
in vivo [55] = details: beagle, dog, po, 15 mg/kg
Description: Half life in beagle dog at 15 mg/kg, po by LC/MS/MS analysis

in vivo [56] = details: beagle, dog, po, 45 mg/kg
Description: Half life in beagle dog at 45 mg/kg, po by LC/MS/MS analysis

in vivo [57] = details: beagle, dog, po, 15 mg/kg; remark: listed apart in the source
Description: Half life in beagle dog at 15 mg/kg, po for 7 days by LC/MS/MS analysis

in vivo [58] = details: beagle, dog, po, 5 mg/kg

For `CCOC(=O)C1=C(CN2CCOCC2)NC(c2nccs2)=NC1c1ccc(F)cc1Br` (centres undefined), the inhibition (Trypsin (Homo sapiens)) was 4%, the Drug uptake [1] was “Active” and the Drug uptake [2] was “Not Active”. The EC90 [3] was 6 nM, the Drug metabolism (Mus musculus [4]) was “Metabolite_Notdetected” and the Drug metabolism (Mus musculus [5]) was “Metabolite_Notdetected”. For the same compound, the Drug metabolism (Canis familiaris [6]) was “Metabolite_Notdetected”, the Drug metabolism (Canis familiaris [7]) was “Metabolite_Notdetected” and the Cmax (Canis familiaris [8]) was 136 ng/mL. The Cmax (Canis familiaris [9]) was 698 ng/mL, the Cmax (Canis familiaris [10]) was 1180 ng/mL and the Cmax (Canis familiaris [11]) was 524 ng/mL. The AUC(0-t) at 24 h [12] was 4350 ng·h/mL, the AUC(0-t) at 24 h [13] was 695 ng·h/mL and the AUC(0-t) at 24 h [14] was 2760 ng·h/mL. The AUC(0-t) at 24 h [15] was 8470 ng·h/mL, the AUC at 24 h [16] was 2830 ng·h/mL and the half-life [17] was 9.85 h. It also gave a half-life [18] of 6.91 h, a clearance [19] of 17.9 mL/min/kg and a Vd [20] of 6.86 L/kg. The Drug uptake [21] was “Not Active”, the Drug uptake [22] was “Not Active” and the inhibition [23] was -3%. It also gave an inhibition (Homo sapiens [24]) of 2%, an inhibition [25] of 2% and an inhibition [26] of -4%. It also gave an Activity [27] of 2%, an inhibition [28] of 4% and an Activity [29] of 5%. For the same compound, the inhibition [30] was -7%, the inhibition [31] was 4% and the inhibition [32] was -10%. The inhibition [33] was 7%, the inhibition (Homo sapiens [34]) was 4% and the inhibition [35] was 7%. The inhibition (Homo sapiens [36]) was 9%, the inhibition [37] was -3% and the inhibition [38] was 11%. The inhibition [39] was 3%, the inhibition [40] was 7% and the inhibition [41] was 1%. For the same compound, the inhibition [42] was 2%, the inhibition [43] was 0% and the inhibition [44] was 4%. For the same compound, the inhibition [45] was 25%, the inhibition [46] was -3% and the inhibition [47] was 9%. It also gave an inhibition [48] of 1%, an inhibition [49] of 8% and an inhibition [50] of 7%. The inhibition [51] was 10%, the inhibition [52] was -1% and the inhibition (Homo sapiens [53]) was -6%. For the same compound, the NOAEL at 672 h [54] was 10 mg/kg, the half-life (in vivo [55]) was 7.32 h and the half-life (in vivo [56]) was 6.29 h. For the same compound, the half-life at 168 h (in vivo [57]) was 9.47 h and the bioavailability (in vivo [58]) was 15.6%.
